The assay concerns C. elegans worms in 200 mM paraquat (PQ). Put plainly: Paraquat survival assay. The note with it: 200 mM PQ; for protective effect on worms' survival in PQ (figure legend): concentration not given, log-rank test. The class given is in vivo. As to the method: C. elegans strains were grown at 21° C. on nematode growth media (NGM) agar plates containing diamines or vehicle as a control. The NGM agar plates were prepared as described in L. Livshits, E. Gross, A method for measuring sulfide toxicity in the nematode Caenorhabditis elegans, MethodsX 4 (2017) 250-255. A suspension of 3 g sodium chloride (NaCl), 20 g Bacto agar, and 2.5 g of Bacto peptone in 1 L of double distilled water (DDW) was mixed and autoclaved. Then, the medium was cooled to 55° C. and supplemented with 1 ml of 100 mM CaCl2), 1 ml of 100 mM MgSO4, 25 ml of 1 M potassium phosphate buffer pH 6, and 1 ml of 5 mg/ml cholesterol (the cholesterol was dissolved in ethanol). Diamines or DDW (vehicle) were added to the NGM-agar solution. For RNAi NGM-agar plates, Isopropyl β-D-1-thiogalactopyranoside (IPTG) and ampicillin were added to a final concentration of 1 mM and 100 μg/ml, respectively. The NGM-agar solution was thoroughly vortex mixed and immediately poured into 35 mm petri dish (4 ml per plate). NGM-plates were covered with aluminum foil and dried for 24 h at room temperature (RT). 24 h before the experiment, plates were seeded with 100 μl bacteria (OD600=0.6, OP50 or HT115(DE3)). The seeded plates were covered with aluminum foil and dried for 24 h at RT.
To get synchronized C. elegans larvae, the method described in W. B. Wood, The Nematode Caenorhabditis Elegans, Cold Spring Harbor Laboratory 1988, was performed. In brief, hypochlorite/NaOH solution was made by mixing 1 ml of 5% solution of sodium hypochlorite, 800 μl of 2.5 N NaOH and 2.2 ml DDW to final concentrations of 0.5 N NaOH and 1.25% sodium hypochlorite. M9 buffer was made by dissolving 3 g KH2PO4, 6 g Na2HPO4, 5 g NaCl and 1 ml of MgSO4 from 1M stock in 1 litter of DDW. The solution pH was adjusted to 7 and sterilizes by filtration (with a 0.2 µm filter bottle). Gravid hermaphrodites was washed from the NGM plates into a 15 ml tube with M9 buffer and centrifuged for 2 min at 900×g, RT. Liquid was removed until 2 ml worms' suspension was left and added 2 ml of hypochlorite/NaOH solution. A 5 ml syringe with a 21-gauge needle was used to aspirate the worm suspension back and forth several times. After 3 min it was observed the state of the worms using a dissecting stereoscope. At this stage, approximately 50% of worms should appear broken and many of the embryos should float in the solution. The embryos were immediately sedimented using centrifugation (1690×g for 2 min) and carefully removed the supernatant and add 10 ml of M9 buffer. This washing step was repeated three additional times. The supernatant was removed until 2 ml remains and rotated the tube for 16 h at RT. The hatched L larvae were collected by centrifugation (1690×g for 3 min) and put ˜80 L in each seeded NGM assay plate. Grow the L1 (Day 1) for 3 days until they become young adults (Day 3).

Setting [1] is: compound at 0.25 mM, vs control worms.
[2] abbreviates: compound at 4 mM, vs control worms.
[3] abbreviates: tested at 0.0625 mM and 0.25 mM, not split.

Consider `NCCCCCCN` [1,6-Diaminohexane], for which the “survival of worms in paraquat” value by setting is: under setting [1], “did not have any effect”; under setting [2], “did not have any effect”.
On to `N=C(N)NCCCCCCNC(=N)N` [1,6-Diguanidinohexane], for which the “protective effect on worms' survival in PQ (figure legend)” value (“protective effect on worms' survival” for short) was “significant protective effect”. Moreover, for the setting “compound at 0.0625 mM, vs control worms”, the “survival of worms in paraquat” value is listed as “significantly improve the survival of worms”. For the same compound, the “survival of worms in paraquat” value under setting [1] is reported as “significantly improve the survival of worms”.
Regarding `NOCCCCCCCCON` [1,8-diaminooxy-octane], the “protective effect on worms' survival” value is recorded as “significant protective effect”. Further, under setting [3], the “survival of worms in paraquat” value is “significantly improved the survival of worms in PQ”.
Take `N=C(N)NCCCCCCCCNC(=N)N` [1,8-diguanidinooctane]: the “protective effect on worms' survival” value was “significant protective effect”. Besides, under setting [3], the “survival of worms in paraquat” value is on record as “significantly improved the survival of worms in PQ”.
Consider `NOCCCCCCCCCON` [1,9-diaminooxy-nonane], for which the “protective effect on worms' survival” value is “significant protective effect”. Further, the “survival of worms in paraquat” value under setting [3] was “significantly improved the survival of worms in PQ”.
Regarding `NCCCCCCCCCCN` [1,10-Diaminodecane], the “survival of worms in paraquat” value under setting [1] was “significantly improved worms' survival” and the “survival of worms in paraquat” value under setting [2] was “significantly decreased worms' survival”.
The corresponding values for `NCCCCCCCCCCCCN` [1,12-Diaminododecane] are “did not” and “significantly improved their survival”.

For the origin of these results see patent US20210253511A1, “COMPOUNDS AND USES FOR THE TREATMENT AND PREVENTION OF DISEASES AND CONDITIONS ASSOCIATE WITH OR AGGREVATED BY IMPARED MITOPHAGY” (Yissum Research Development Company of The Hebrew …, priority 2018, published 2021).
